Experimental data taken from the supplement of paper PMC12317010.
Structures can show the parent of a compound that is named as a salt.

Experiment: collision cross section in nitrogen (drift tube, single-field); higher = larger gas-phase ion size
[1] = ion type: [M+H], ion source: APCI, ion mode: Positive
[2] = ion type: [M+H], ion source: ESI, ion mode: Positive
[3] = ion type: [M+Na], ion source: ESI, ion mode: Positive
[4] = ion type: [M-H], ion source: ESI, ion mode: Negative
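Further: chemical standards at 10 µM analysed by drift tube IMS-QTOF MS in about 3.95 torr nitrogen, mean of duplicate injections differing ≤1%, mass error below 10 ppm.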

| collision cross section in nitrogen [1] [Å²] | collision cross section in nitrogen [4] [Å²] | SMILES | collision cross section in nitrogen [2] [Å²] | collision cross section in nitrogen [3] [Å²] | also measured |
| --- | --- | --- | --- | --- | --- |
| 176 | – | O=C(/C=C/C=C/c1ccc2c(c1)OCO2)N1CCCCC1 [Piperine] | 175.7 | 177.8 | – |
| – | – | CCCCOCCOCCOCc1cc2c(cc1CCC)OCO2 [Piperonyl butoxide] | – | 179.9 | – |
| – | 204.3 | CS(=O)(=O)c1ccc([C@@H](C[C@H]2CCC(=O)C2)C(=O)Nc2cnccn2)cc1Cl [Piragliatin] | – | – | – |
| 202.3 | 207.8 | O=C(O)C[C@H](O)C[C@H](O)/C=C/c1c(C2CC2)nc2ccccc2c1-c1ccc(F)cc1 [Pitavastatin calcium] | 203.2 | 196.7 | – |
| – | 186.1 | CCCCCCCCC=CCCCCCCCC(=O)OCCO [Poly(oxyethylene) monoleate] | – | – | – |
| – | 131.2 | O=S(=O)(O)c1cc(O)ccc1O [Potassium 2,5-dihydroxybenzenesulfonate] | – | – | – |
| – | 137.8 | CCCCC(CC)C(=O)O (stereo not given) [Potassium 2-ethylhexanoate] | – | – | – |
| – | 159.1 | CC(=O)CC(=O)Nc1ccc(S(=O)(=O)O)cc1 [Potassium 4-acetoacetylaminobenzenesulphonate] | – | – | – |
| – | 148.2 | O=S(=O)(O)c1ccc2cc(O)ccc2c1 [Potassium 6-hydroxynaphthalene-2-sulfonate] | – | – | – |
| – | 134.6 | O=C(O)CNc1ccccc1 [Potassium anilinoacetate] | – | – | – |
| – | 92.6 | I [Potassium iodide] | – | – | – |
| – | – | C#CCC1=C(C)C(OC(=O)C2C(C=C(C)C)C2(C)C)CC1=O (stereo not given) [Prallethrin] | – | 182.8 | – |
| 152.8 | – | CCCN[C@H]1CCc2nc(N)sc2C1 [Pramipexole dihydrochloride monohydrate] | 152.6 | – | – |
| – | 201.5 | CC[C@H](C)C(=O)O[C@H]1C[C@H](O)C=C2C=C[C@H](C)[C@H](CC[C@@H](O)C[C@@H](O)CC(=O)O)[C@H]21 [Pravastatin sodium] | – | 206.7 | – |
| 178.5 | – | O=C(C1CCCCC1)N1CC(=O)N2CCc3ccccc3C2C1 (stereo not given) [Praziquantel] | 178.3 | 185.4 | – |
| 186.4 | – | C[C@]12C=CC(=O)C=C1CC[C@@H]1[C@@H]2[C@@H](O)C[C@@]2(C)[C@H]1CC[C@]2(O)C(=O)CO [Prednisolone] | – | 210.8 | – |
| 184.1 | – | C[C@]12C=CC(=O)C=C1CC[C@@H]1[C@@H]2C(=O)C[C@@]2(C)[C@H]1CC[C@]2(O)C(=O)CO [Prednisone] | – | 192.2 | – |
| – | 189.5 | CC(=O)[C@H]1[C@H](C#N)C[C@H]2[C@@H]3CC=C4C[C@@H](O)CC[C@]4(C)[C@H]3CC[C@@]21C [Pregnenolone carbonitrile] | – | – | – |
| – | – | COC(=O)c1ccccc1S(=O)(=O)NC(=O)Nc1nc(OC(F)F)cc(OC(F)F)n1 [Primisulfuron-methyl] | – | 199.7 | – |
| – | 172.9 | CCCN(CCC)S(=O)(=O)c1ccc(C(=O)O)cc1 [Probenecid] | – | – | – |

| collision cross section in nitrogen [1] [Å²] | collision cross section in nitrogen [4] [Å²] | SMILES | collision cross section in nitrogen [2] [Å²] | collision cross section in nitrogen [3] [Å²] | also measured |
| --- | --- | --- | --- | --- | --- |
| 155.9 | – | CCN(CC)CCOC(=O)c1ccc(N)cc1 [Procaine hydrochloride] | 157.1 | – | – |
| 159.4 | – | CC(C)(C#N)Nc1nc(Cl)nc(NC2CC2)n1 [Procyazine] | 159 | – | – |
| – | 171.1 | CCCN(CCC)c1c([N+](=O)[O-])cc(C(F)(F)F)c(N)c1[N+](=O)[O-] [Prodiamine] | – | – | – |
| – | – | CCCSP(=O)(OCC)Oc1ccc(Br)cc1Cl (stereo not given) [Profenofos] | 169.5 | 184.3 | – |
| 143.4 | – | Nc1ccc2cc3ccc(N)cc3nc2c1 [Proflavin hydrochloride] | 143.9 | – | – |
| – | – | CNC(=O)Oc1cc(C)cc(C(C)C)c1 [Promecarb] | – | 157.5 | – |
| 163.3 | – | CC(CN1c2ccccc2Sc2ccccc21)N(C)C (stereo not given) [Promethazine hydrochloride] | 163.7 | 172.5 | – |
| 142.7 | – | CCCOC(=O)NCCCN(C)C [Propamocarb hydrochloride] | 143.4 | – | – |
| 142.9 | – | CCCOC(=O)NCCCN(C)C [Propamocarb] | 143.3 | – | – |
| – | 151.3 | CCCCC(CC)C(=O)OC(C)C (stereo not given) [Propan-2-yl 2-ethylhexanoate] | – | – | – |
| – | – | CC(C)[N+](C)(CCOC(=O)C1c2ccccc2Oc2ccccc21)C(C)C [Propantheline bromide] | – | – | collision cross section in nitrogen (ion source: ESI, ion mode: Positive, ion type: [M]+ (permanent cation)): 184.1 Å² |
| – | – | C#CCOS(=O)OC1CCCCC1Oc1ccc(C(C)(C)C)cc1 (stereo not given) [Propargite] | – | 186.9 | – |
| 162.5 | – | CC(C)NCC(O)COc1cccc2ccccc12 (stereo not given) [Propranolol hydrochloride] | 162.8 | 167.7 | – |
| – | – | CCCCCCCCC(=O)OCC(C)OC(=O)CCCCCCCC (stereo not given) [Propylene glycol dipelargonate] | – | 207.9 | – |
| – | 142.9 | CCCOC(=O)c1ccc(O)cc1 [Propylparaben] | – | – | – |
| – | 149 | O=C1c2ccccc2C(=O)c2c(O)c(O)cc(O)c21 [Purpurin] | – | – | – |
| – | – | CCOC(=O)COc1cc(-c2nn(C)c(OC(F)F)c2Cl)c(F)cc1Cl [Pyraflufen-ethyl] | 188 | 198.4 | – |
| – | – | c1cc2ccc3cccc4ccc(c1)c2c34 [Pyrene] | – | – | collision cross section in nitrogen (ion type: [M+], ion source: APCI, ion mode: Positive): 136.3 Å² |
| – | – | CC(C)(C)c1ccc(CSc2cnn(C(C)(C)C)c(=O)c2Cl)cc1 [Pyridaben] | – | 208.8 | – |

| SMILES | collision cross section in nitrogen [1] [Å²] | collision cross section in nitrogen [4] [Å²] | collision cross section in nitrogen [2] [Å²] | collision cross section in nitrogen [3] [Å²] | also measured |
| --- | --- | --- | --- | --- | --- |
| Cc1nc(N(C)C)nc(OC(=O)N(C)C)c1C [Pirimicarb] | 152 | – | 156.4 | 164.2 | – |
| CCOP(=S)(OCC)Oc1cc(C)nc(N(CC)CC)n1 [Pirimiphos-ethyl] | 176.3 | – | 178.3 | 181.5 | – |
| CCN(CC)c1nc(C)cc(OP(=S)(OC)OC)n1 [Pirimiphos-methyl] | 165.5 | – | 167.9 | – | – |
| [O-][Cl+2]([O-])O [Potassium chlorate] | – | 104 | – | – | – |
| O=[N+]([O-])O [Potassium nitrate] | – | 104.9 | – | – | – |
| [O-][Cl+3]([O-])([O-])O [Potassium perchlorate] | – | 105.2 | – | – | – |
| O=S(=O)(O)C(F)(F)C(F)(F)C(F)(F)C(F)(F)F [Potassium perfluorobutanesulfonate] | – | 134.2 | – | – | – |
| O=S(=O)(O)C(F)(F)C(F)(F)C(F)(F)C(F)(F)C(F)(F)C(F)(F)F [Potassium perfluorohexanesulfonate] | – | 150.9 | – | – | – |
| O=S(=O)(O)C(F)(F)C(F)(F)C(F)(F)C(F)(F)C(F)(F)C(F)(F)C(F)(F)C(F)(F)F [Potassium perfluorooctanesulfonate] | – | 169 | – | – | – |
| CC12CC1(C)C(=O)N(c1cc(Cl)cc(Cl)c1)C2=O (stereo not given) [Procymidone] | – | 157.1 | – | – | – |
| CCCN(CC1CC1)c1c([N+](=O)[O-])cc(C(F)(F)F)cc1[N+](=O)[O-] [Profluralin] | – | 172.2 | – | – | – |
| COc1nc(NC(C)C)nc(NC(C)C)n1 [Prometon] | 156.1 | – | 156.5 | 173.7 | – |
| CSc1nc(NC(C)C)nc(NC(C)C)n1 [Prometryn] | 160.9 | – | 161 | – | – |
| CC(C)N(C(=O)CCl)c1ccccc1 [Propachlor] | 143.4 | – | 143.2 | 161.5 | – |
| N#CCC#N [Propanedinitrile] | – | 103.8 | – | – | – |
| CCNP(=S)(OC)O/C(C)=C/C(=O)OC(C)C (stereo not given) [Propetamphos] | – | 168.1 | – | 170.5 | – |
| CCCC1COC(Cn2cncn2)(c2ccc(Cl)cc2Cl)O1 (stereo not given) [Propiconazole] | 180.9 | – | 179.8 | – | – |
| CC(C)c1cccc(C(C)C)c1O [Propofol] | – | 143.5 | – | – | – |
| CCCOc1nn(C(=O)NS(=O)(=O)c2ccccc2C(=O)OC)c(=O)n1C [Propoxycarbazone-sodium] | – | 193.2 | – | – | – |
| C#CC(C)(C)NC(=O)c1cc(Cl)cc(Cl)c1 [Propyzamide] | 157.9 | 157.3 | – | – | – |
| OC(Cc1ccccc1Cl)(Cn1nc[nH]c1=S)C1(Cl)CC1 (stereo not given) [Prothioconazole] | – | 171 | – | 174.4 | – |
| CC1=NNC(=O)N(/N=C/c2cccnc2)C1 [Pymetrozine] | 154.8 | – | 154.2 | 155.8 | – |
| COC(=O)N(OC)c1ccccc1COc1ccn(-c2ccc(Cl)cc2)n1 [Pyraclostrobin] | 184.5 | – | 183.8 | 195.5 | – |
| CCOC(=O)c1cn2nc(OP(=S)(OCC)OCC)cc2nc1C [Pyrazophos] | 192.5 | – | 191.7 | 195.9 | – |
